From patent publication US20240024289A1, “TREATMENT OF BIPOLAR DISORDERS AND PSYCHOSIS USING DEXMEDETOMIDINE HYDROCHLORIDE” (BioXcel Therapeutics, Inc., priority 2020, published 2024)
Read-outs that look alike come from different tables or passages of the source.

Key:
Male C57/B16 mice [1] = system: Male C57/B16 mice
From the text: This system uses features derived from mouse behavioral data to classify compounds for their ability to treat neuro-psychiatric symptoms by comparing the features to a proprietary reference database of behavioral feature sets that are linked to classes of marketed drugs known to treat neuro-psychiatric symptoms. Thus the system can be used as a model to identify the psychiatric effect of a compound by comparing the effects of the compounds against drugs with known validated effects.
Once all features are extracted from the raw data through an automated pipeline, proprietary bioinformatics algorithms are used to decorrelate groups of features and find the combination of values that best separate different groups of interest.
SmartCube reference data used herein include anti-psychotics tested at several dose ranges. […] Anti-psychotics, when administered at higher doses, can engage additional receptor systems and thus affect mouse behavior differently.
Animals: Male C57/B16 mice (N=12 per group) from Taconic Laboratories were used. Upon receipt, mice were group-housed in OPTI mouse ventilated cages with 4 mice per cage. Mice were acclimated to the colony room for at least one week prior to test and subsequently tested at approximately 8-9 weeks of age. All animals were examined, handled, and weighed prior to initiation of the study to assure adequate health and suitability and to minimize non-specific stress associated with manipulation.
Treatment: 7 groups (N=12 per group)
All compounds tested were formulated in NP3 (vehicle solution): 5% Pharmasolve; 30% P3 (1:1:1 PEG200:PEG400:propylene glycol); 65% saline; pH is 5.1-6.
All SmartCube runs were conducted with NP3 as vehicle and under identical settings. […] Test compounds were injected intraperitoneally (IP) for 15 min before animals were placed in SmartCube for assessment.
The results for the class analyses are presented as standardized bar charts with percentages that sum to 100 for each dose. The percentage indicates the probability the classifier can differentiate between the vehicle group and test group. […]

Male C57/B16 mice [2] = conditions: reference data from Psychogenics, cited from earlier work

Which results are given for Cc1cccc([C@H](C)c2cnc[nH]2)c1C [Dexmedetomidine, (+) 4-(S)-[1-(2,3-dimethylphenyl)ethyl]-1H-imidazole]?
SmartCube class signature (Male C57/B16 mice [1]; IP, 1, 2 and 5 mcg/kg): cannot distinguish the mouse behaviour from behaviour of mice on vehicle; SmartCube class signature (Male C57/B16 mice [1]; IP, 10, 20 and 50 mcg/kg (0.01, 0.02, 0.05 mg/kg), 15 min before test): antipsychotic signature; SmartCube class signature (Male C57/B16 mice [1]; IP, higher doses): high dose of anti-psychotic

Which SmartCube class signature (Male C57/B16 mice [2]; higher doses) does the source give for N=C(N)NC(=O)Cc1c(Cl)cccc1Cl [Guanfacine] here?
The SmartCube class signature was “high dose anti-psychotic”.

What about the SmartCube class signature (Male C57/B16 mice [2]; therapeutically effective doses) of the same compound?
Its SmartCube class signature is “unable to assign signature”.
